Measurements published in patent EP2949653A1, “ISOXAZOLE DERIVATIVES AS LEUKOTRIENE BIOSYNTHESIS INHIBITORS” (Banoglu, Erden, priority 2014, dated 2015).

How the values were obtained:
5-LO [1] = biological target: T1, 5-LO (Homo sapiens, UniProt P09917); experiment: 5-LO mediated product synthesis in HEK293 cells transfected with only 5-LO; assay type: cell-based; settings: 2.5 µM A23187 plus 3 µM AA (Figure 7)
T1 sequence (P09917 1-674): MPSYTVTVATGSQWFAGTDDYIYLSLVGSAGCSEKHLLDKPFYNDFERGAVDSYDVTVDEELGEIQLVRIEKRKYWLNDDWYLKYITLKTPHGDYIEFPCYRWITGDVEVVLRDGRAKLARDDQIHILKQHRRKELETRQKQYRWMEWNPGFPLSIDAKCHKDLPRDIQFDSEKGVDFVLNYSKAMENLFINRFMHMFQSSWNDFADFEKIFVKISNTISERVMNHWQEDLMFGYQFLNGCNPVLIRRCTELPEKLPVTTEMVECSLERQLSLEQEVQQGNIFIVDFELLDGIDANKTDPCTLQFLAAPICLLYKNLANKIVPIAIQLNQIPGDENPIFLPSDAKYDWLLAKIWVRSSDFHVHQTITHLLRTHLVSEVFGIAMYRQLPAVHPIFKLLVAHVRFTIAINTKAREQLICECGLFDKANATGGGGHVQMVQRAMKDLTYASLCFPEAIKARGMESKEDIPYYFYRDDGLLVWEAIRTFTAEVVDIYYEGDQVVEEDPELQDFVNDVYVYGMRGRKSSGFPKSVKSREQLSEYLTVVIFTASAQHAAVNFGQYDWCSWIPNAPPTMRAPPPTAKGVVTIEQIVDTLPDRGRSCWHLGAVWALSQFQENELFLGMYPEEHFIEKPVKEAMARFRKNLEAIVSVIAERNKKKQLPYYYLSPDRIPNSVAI
Description: (§1) Compound 9hj inhibited 5-LO mediated product synthesis in HEK293 cells transfected with only 5-LO, with IC50 of 900 nM. […] After preincubation of cells with 9hj for 15 min at 37°C, cells were stimulated with 2.5 µM A23187 plus 3 µM AA for 10 min at 37°C. Data are expressed as percentage of vehicle control (0.1% DMSO). 100% controls correspond to 157.48 ng mL^-1 for 5-LO transfected cells and 155.15 ng mL^-1 for 5-LO plus FLAP transfected cells.

5-LO plus FLAP = biological target: T2, 5-LO plus FLAP (Homo sapiens, UniProt P20292); experiment: 5-LO mediated product synthesis in HEK293 cells transfected with 5-LO plus FLAP; assay type: cell-based; settings: 2.5 µM A23187 plus 3 µM AA (Figure 7)
T2 construct: expressed in transfected cells; host or cells: HEK293 (stably transfected)
T2 sequence (P20292 1-161): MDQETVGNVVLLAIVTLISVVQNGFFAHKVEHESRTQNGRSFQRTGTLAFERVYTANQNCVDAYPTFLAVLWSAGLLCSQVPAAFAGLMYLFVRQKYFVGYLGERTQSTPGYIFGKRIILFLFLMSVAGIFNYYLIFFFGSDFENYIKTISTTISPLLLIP
Description: as §1

[2] = test system: zymosan-induced peritonitis; experiment: Zymosan-induced peritonitis in mice; assay type: in vivo; settings: i.p., male mice, 30 min before zymosan; LTC4 levels in peritoneal exudate (Figure 9)
Description: (§2) Cell based and cell-free assays carried out in biological studies, immunofluorescence microscopy analysis and zymosan-induced peritonitis in mice are performed as described hereinabove (Pegola, C. and et al., British J. Pharmacology, 2014, D01:10.1111/bph.12625). In the cell based assays (intact neutrophils or monocytes), 5-LO mediated product formation is started, after pre-incubation with test compounds (or control DMSO) for 15 min. at 37 °C, with addition of Ca-ionophore A23187 (2.5 µM) to the fresh 5 x 10^6 neutrophils or monocytes suspended in 1 ml of PGC buffer (phosphate buffered saline (PBS) solution containing 1 mg ml^-1 glucose and 1mM CaCl2, pH 7.4). After the incubation for 10 min. at 37 °C, the reaction is ended with addition of 1 ml of methanol, and 30 µL 1 N HCl, 200 ng prostaglandin B1 and 500 µL PBS are added to the mixture. […] Resulting 5-LO mediated products are extracted and analysed by the known method of high pressure liquid chromatography (HPLC) (Pergola, C. Proc Natl. Acad. Sci. U.S.A. 2008, 105, 19881). 5-LO mediated product formation (LTB4 and all trans isomers, and 5 (S)-hydro(pero)xy-6-trans-8, 11, 14-cis-eicosatetraenoic acid, 5-H(p)ETE) is expressed as ng per 10^6 cell. Cysteinyl-LTs have not been analyzed because that the amount of C4, D4 and E4 and LTB4 oxidation products are below the detection limit. […]

[3] = test system: 5-LO mediated product formation; experiment: 5-LO mediated product formation in intact neutrophils stimulated with A23187 (cell-based); settings: Homo sapiens, Neutrophil; A23187, in the presence of 20 µM to 80 µM exogenous arachidonic acid (Figure 2); read-out: IC50 5-LO mediated product formation in human neutrophils with exogenous AA
5-LO [4] = biological target: T1, 5-LO; experiment: 5-LO mediated product formation in neutrophil homogenates (reducing conditions); assay type: biochemical; design: endogenous in cells; host or cells: neutrophil homogenates; settings: with or without GSH (1 mM), 20 µM AA (Figure 6)
Description: as §2

- IC50 (5-LO [1]): 0.9 µM
- IC50 (5-LO plus FLAP): 0.31 µM
- IC50 [3]: 0.17 to 0.35 µM
- IC50 (5-LO [4]): 1 µM
SMILES: O=C(O)c1noc(-c2ccc(OCc3ccc4ccccc4n3)cc2)c1-c1ccc(Cl)cc1 [Compound 9hj, 4-(4-Chlorophenyl)-5-(4-(quinolin-2-ylmethoxy)phenyl)isoxazole-3-carboxylic acid]
- ID50 zymosan-induced peritonitis [2]: 7 mg/kg
